Assay results: paper PMC4387594, “Pentacycloundecane lactam vs lactone norstatine type protease HIV inhibitors: binding energy calculations and DFT study” (Journal of Biomedical Science, 2015)
Where two headings read alike, the source gives them in different places. Peptide text beside a SMILES is read from it. * marks the point of attachment. X2 = O=C1OC2(C(=O)*)C3C4CC5C6C4C2C6C1(O)C53; X1 = O=C1NC2(N*)C3C4CC5C6C4C2C6C1(O)C53

Assays:
[1] = 1H NMR, ref [19],[20], cited from earlier work
Description: It is therefore most likely that the lactam form is the active form in aqueous solution (also used for the IC50 experiments). The conformation for the amide side chain with the lowest energy was determined. In both cases this conformation involved intramolecular hydrogen bonding (O5 ...

[2] = target: T1, wild type C-South African (C-SA) HIV-1 protease (Human immunodeficiency virus type 1 group M subtype B, UniProt P12497, H557K/I503V/I581L/L507I/L577M/M524I/R529K/T500S); test: in vitro HIV-1 protease inhibition (C-SA PR); format: biochemical, HIV-1 subtype C
T1 construct: Over-expression, extraction and purification of the C-SA protease and in vitro HIV-1 protease activity were reported in our earlier publications; made in house
Excerpt: Over-expression, extraction and purification of the C-SA protease and in vitro HIV-1 protease activity were reported in our earlier publications. Genetic diversity among HIV-1 subtypes ranges between 25 and 35% at the nucleotide level and variation within subtypes vary from 15 to 20% [48, 49].
The HIV-1 subtype C PR that predominates in South Africa (C-SA PR) is defined as the consensus subtype C PR [51]. This C-SA PR contains eight polymorphic sites (T12S, I15V, L19I, M36I, R41K, H69K, L89M, and I93L) in relation to the wild-type subtype B HIV-1 PR [52].
The procedures followed were the same as reported before ^12,13.

| Structure (SMILES) | IC50 [2] | other results |
| --- | --- | --- |
| CC(=O)NC12NC(=O)C3(O)C4C5CC(C6C5C3C61)C42 (racemic) [PCU-lactam] |  | tautomer preference ([1]; (CD3)2SO): major tautomer |
| CC(=O)NC12N=C(O)C3(O)C4C5CC(C6C5C3C61)C42 (racemic) [PCU-lactim] |  | tautomer preference ([1]; dioxane): dominant |
| COC(=O)N[C@H](C(=O)N[C@@H](Cc1ccccc1)[C@@H](O)CN(Cc1ccc(-c2ccccn2)cc1)NC(=O)[C@@H](NC(=O)OC)C(C)(C)C)C(C)(C)C [Atazanavir, reference compound] | 4 ± 0.71 nM |  |
| CC[C@H](C)[C@H](NC(=O)[C@@H](N)CO)C(=O)N[C@@H](C)C(=O)N[C@@H](CCC(=O)O)C(=O)NC12NC(=O)C3(O)C4C5CC(C6C5C3C61)C42 (some centres unmarked) [PCU-lactam-NH-EAIS] (H-SIAE-X1) | ~78 nM |  |
| CC[C@H](C)[C@H](NC(=O)[C@H](C)NC(=O)C12OC(=O)C3(O)C4C5CC(C6C5C3C61)C42)C(=O)N[C@@H](CO)C(N)=O (some centres unmarked) [PCU-lactone-CO-AIS] | 830 nM |  |
| CC[C@H](C)[C@H](NC(=O)[C@H](C)NC(=O)[C@H](CCC(=O)O)NC(=O)C12OC(=O)C3(O)C4C5CC(C6C5C3C61)C42)C(=O)N[C@@H](CO)C(N)=O (some centres unmarked) [PCU-lactone-CO-EAIS] (X2-EAIS-NH2) | 850 ± 180 nM | IC50 relative to the corresponding cage lactam peptide ([2]; C-SA HIV-1 protease): eleven times weaker |
| CC[C@H](C)[C@H](NC(=O)[C@H](C)NC(=O)[C@H](CCC(=O)O)NC(=O)C12OC(=O)C3(O)C4C5CC(C6C5C3C61)C42)C(N)=O (some centres unmarked) [PCU-lactone-CO-EAI] | 2600 nM |  |
